Reference: US20110076240A1, “Antifungal and Anti-Cariogenic Cellobio-Oligosaccharides Produced by Dextransucrase” (priority 2008, published 2011)

Tested on: mutansucrase
Test: Inhibition of water insoluble glucan synthesis (absorbance at 550 nm; adherence to glass vials)
Format: biochemical, Streptococcus mutans and S. sorbrinus
Conditions: 50 mM test substance, 1 M sucrose, 37° C., 48 h
Method: Isolation of Oral Bacteria and Production of Mutansucrase: Oral bacteria were collected by a cotton swab from human teeth and streaked onto a brain heart infusion (BHI) agar containing 4% sucrose. The culture was grown at 37° C. until visible colonies of Streptococcus mutans and S. sorbrinus appeared. The colonies were grown in 1 L BHI at 37° C. with shaking at 150 rpm for 24-36 h to induce production of mutansucrase secreted outside the cell membrane. After incubation, the culture was harvested by centrifugation, and the supernatant with the mutansucrase was concentrated to 100 ml using a 30 K cut-off membrane filter. One unit of mutansucrase in the concentrated supernatant was defined as the amount of enzyme that catalyzes the formation of 1 μmol of fructose per minute at 37° C., pH 7.0, from 100 mM sucrose.
These cultures were grown in glass vials at 37° C. for 48 h.
The supernatants of individual reaction mixtures were discarded such that the insoluble glucans remained in the vial. To compare the amount of insoluble glucans produced, the synthesized glucans on the glass were washed with a HEPES buffer and dissolved in 0.5 N NaOH. The resulting wash was used to measure the soluble glucans. The absorbance of water insoluble glucans was measured at 550 nm. For visualization, synthesized glucans were dyed with a drop of dental disclosing solution.

`O=C[C@H](O)[C@@H](O)[C@H](O[C@@H]1O[C@H](CO)[C@@H](O)[C@H](O)[C@H]1O)[C@H](O)CO` [cellobiose] was tested, and the “insoluble glucans produced compared to the control mixture” value was “did not affect”.
